Laboratory results reported in article PMC7988029, “Growth optimization and identification of an ω-transaminase by a novel native PAGE activity staining method in a Bacillus sp. strain BaH isolated from Iranian soil” (AMB Express, 2021).
Read-outs that look alike come from different tables or passages of the source.

System: T1, BaH-ω-TA
T1 construct: gene omega-TA; native enzyme in unpurified crude extract of the wild-type strain; one activity band on native PAGE
Experiment: acetophenone formation by HPLC, Michaelis-Menten non-linear fit
Assay type: biochemical, Bacillus sp. BaH
Settings: 0.1 mM PLP, Britton-Robinson buffer pH 6, 15 % DMSO, 35 °C, 1 mg/mL crude extract, read-out: apparent Km

Km (60 mM pyruvate) | Km (70 mM (S)-MBA) | Structure (SMILES)
2.6 mM |  | C[C@H](N)c1ccccc1 [(S)-MBA]
 | 17.3 mM | CC(=O)C(=O)O [pyruvate]
